Measured values as given in ChEMBL document CHEMBL1201862, “PubChem BioAssay data set” (2004).
Calls of active or inactive are those of the source.

How the values were obtained:
[1] = P. falciparum Dd2 growth inhibitors, dose response, SYBR Green, cherry-picked samples (AID 1159567); type: functional, cell-based
[2] = growth inhibition of PfATP4-mutant resistant parasites – NITD609-resistant line, SYBR Green, dry powder, dose response (AID 1159571); type: functional, cell-based;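 note: parasites synchronized at ring stage by sorbitol before testing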
[3] = toxicity to human HepG2 hepatoma cells – cell-based, plate reader, dry powder samples, cytotoxicity control, dose response (AID 1159569); type: functional;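 note: inhibitor potency with signal falling toward the positive control level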
[4] = growth inhibition of yeast DHODH-expressing 3D7 parasites – SYBR Green, dry powder samples, dose response (AID 1159570); type: functional, cell-based;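 note: parasite growth measured after 72 hours of compound exposure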
[5] = Dd2 malaria parasite growth inhibition potency – SYBR Green, dry powder samples, dose response (AID 1159566); type: functional, cell-based;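 note: potency for growth inhibition with lower SYBR green DNA signal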
Large T antigen = Large T antigen (Simian virus 40, UniProt P03070); type: functional, Betapolyomavirus macacae;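 note: Confirmatory-stage PubChem screen for compounds that inhibit SV40 T antigen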
[6] = THP-1 cell cytotoxicity, dose response, cytotoxicity control for non-replicating M. tuberculosis project (AID 489025); type: functional
[7] = NIH-3T3 fibroblast cytotoxicity, dose response, cytotoxicity control, cell-based, fluorescence, Alamar Blue, secondary assay (AID 2327); type: functional;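 note: NIH-3T3 mouse fibroblasts cultured with fluconazole at 8 µg/mL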
[8] = fluconazole-exposed Candida albicans growth modulators – fluorescence, retest, confirmation (AID 2467); type: functional, cell-based
Leucine aminopeptidase = target: T1, Leucine aminopeptidase (Plasmodium falciparum 3D7, UniProt Q8IL11); assay: P. falciparum M17LAP inhibitors, primary screen, biochemical, fluorogenic H-Leu-NHMec substrate, 1536-well (AID 1619); type: functional
T1 sequence (Q8IL11 whole entry): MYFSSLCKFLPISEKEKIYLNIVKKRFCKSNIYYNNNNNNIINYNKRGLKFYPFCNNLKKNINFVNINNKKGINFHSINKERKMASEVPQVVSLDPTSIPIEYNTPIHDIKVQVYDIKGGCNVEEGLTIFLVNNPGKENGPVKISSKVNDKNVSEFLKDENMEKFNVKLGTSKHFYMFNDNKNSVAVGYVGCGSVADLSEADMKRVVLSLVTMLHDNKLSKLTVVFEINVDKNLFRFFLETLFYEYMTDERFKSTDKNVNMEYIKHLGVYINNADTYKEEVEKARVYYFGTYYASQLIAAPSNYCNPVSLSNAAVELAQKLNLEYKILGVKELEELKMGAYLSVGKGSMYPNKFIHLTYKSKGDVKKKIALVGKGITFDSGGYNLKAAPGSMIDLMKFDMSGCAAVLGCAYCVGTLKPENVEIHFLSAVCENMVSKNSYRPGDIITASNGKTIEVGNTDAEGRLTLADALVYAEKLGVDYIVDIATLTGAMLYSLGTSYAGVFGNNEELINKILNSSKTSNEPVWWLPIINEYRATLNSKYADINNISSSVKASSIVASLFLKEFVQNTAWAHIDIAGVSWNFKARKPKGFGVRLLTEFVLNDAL

Aminopeptidase N = target: T2, Aminopeptidase N (Plasmodium falciparum FcB1/Columbia, UniProt O96935); assay: malaria alanyl aminopeptidase activity blockers – biochemical, fluorogenic H-Leu-NHMec substrate, 1536-well (AID 1445); parameters: species or system Plasmodium falciparum 3D7, 3D7
T2 sequence (O96935 whole entry): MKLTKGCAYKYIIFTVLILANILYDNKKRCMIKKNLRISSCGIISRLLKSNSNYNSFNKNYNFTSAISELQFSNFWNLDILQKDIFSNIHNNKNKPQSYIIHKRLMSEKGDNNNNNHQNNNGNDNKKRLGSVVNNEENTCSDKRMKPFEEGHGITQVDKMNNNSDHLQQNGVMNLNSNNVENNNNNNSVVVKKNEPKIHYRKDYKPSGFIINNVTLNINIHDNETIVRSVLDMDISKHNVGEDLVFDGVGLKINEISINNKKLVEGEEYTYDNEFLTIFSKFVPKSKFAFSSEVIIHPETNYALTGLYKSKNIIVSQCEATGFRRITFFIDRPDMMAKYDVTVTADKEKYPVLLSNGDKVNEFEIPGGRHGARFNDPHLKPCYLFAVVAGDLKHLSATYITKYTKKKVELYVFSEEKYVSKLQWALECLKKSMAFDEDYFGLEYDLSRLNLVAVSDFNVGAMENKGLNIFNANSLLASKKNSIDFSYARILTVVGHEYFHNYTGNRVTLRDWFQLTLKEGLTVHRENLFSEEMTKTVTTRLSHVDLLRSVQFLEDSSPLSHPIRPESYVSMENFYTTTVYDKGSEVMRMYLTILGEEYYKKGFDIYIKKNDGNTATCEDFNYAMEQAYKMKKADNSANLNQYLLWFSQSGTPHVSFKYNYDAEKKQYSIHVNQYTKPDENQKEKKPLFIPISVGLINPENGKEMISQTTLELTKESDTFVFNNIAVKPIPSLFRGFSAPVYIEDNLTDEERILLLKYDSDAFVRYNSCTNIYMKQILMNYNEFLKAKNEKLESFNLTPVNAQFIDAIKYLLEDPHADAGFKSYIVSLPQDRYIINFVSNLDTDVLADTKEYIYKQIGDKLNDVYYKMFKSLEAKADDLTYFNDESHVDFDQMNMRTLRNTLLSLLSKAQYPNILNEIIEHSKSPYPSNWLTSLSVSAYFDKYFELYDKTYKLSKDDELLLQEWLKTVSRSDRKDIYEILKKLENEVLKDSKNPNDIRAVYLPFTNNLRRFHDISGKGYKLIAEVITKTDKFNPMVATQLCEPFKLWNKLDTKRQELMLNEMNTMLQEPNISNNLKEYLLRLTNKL

[9] = antiviral protection against BTV-induced cell death – arbovirus, BSR cells, confirmation (AID 1250); type: functional;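 note: protection from viral cytopathic effect measured as cell viability by ATP luminescence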
Cytochrome P450 1A2 = target: T3, Cytochrome P450 1A2 (Homo sapiens, UniProt P05177);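 note: PubChem cytochrome P450 panel assay, CYP1A2 panel member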
T3 sequence (P05177 whole entry): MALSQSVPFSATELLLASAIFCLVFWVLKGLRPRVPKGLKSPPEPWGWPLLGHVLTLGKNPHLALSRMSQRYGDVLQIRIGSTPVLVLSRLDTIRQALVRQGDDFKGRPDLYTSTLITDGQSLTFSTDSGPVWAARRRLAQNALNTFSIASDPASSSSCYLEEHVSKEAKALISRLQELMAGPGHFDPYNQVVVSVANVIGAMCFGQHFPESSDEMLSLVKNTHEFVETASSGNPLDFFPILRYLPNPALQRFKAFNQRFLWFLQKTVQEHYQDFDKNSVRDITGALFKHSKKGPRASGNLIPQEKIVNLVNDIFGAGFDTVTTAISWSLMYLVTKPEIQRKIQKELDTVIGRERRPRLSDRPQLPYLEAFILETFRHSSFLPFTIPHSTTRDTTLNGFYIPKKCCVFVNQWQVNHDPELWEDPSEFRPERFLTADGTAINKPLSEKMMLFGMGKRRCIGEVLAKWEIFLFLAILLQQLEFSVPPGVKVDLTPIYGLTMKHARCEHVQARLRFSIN

Cytochrome P450 2D6 = Cytochrome P450 2D6 (Homo sapiens, UniProt P10635);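 note: CYP2D6 member of a cytochrome P450 panel assay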
Genome polyprotein = Genome polyprotein (dengue virus type 2, UniProt P29990); assay: flavivirus cap methylation enzyme inhibition – biochemical, confirmation dose response, primary screen (AID 588689); type: functional
[10] = target: DNA dC->dU-editing enzyme APOBEC-3A (Homo sapiens, UniProt P31941); assay: Dose Response confirmation of small molecule APOBEC3A DNA Deaminase Inhibitors via a fluorescence-based single-stranded DNA deaminase assay. [Related pubchem assays (depositor defined):AID493011, AID493024]; type: functional
[11] = target: T4, Replicative DNA helicase DnaB (Mycobacterium tuberculosis, UniProt P9WMR3); assay: DnaB intein splicing inhibitors, dose response, biochemical, cell-free fluorescence (AID 449749); type: functional
T4 sequence (P9WMR3 whole entry): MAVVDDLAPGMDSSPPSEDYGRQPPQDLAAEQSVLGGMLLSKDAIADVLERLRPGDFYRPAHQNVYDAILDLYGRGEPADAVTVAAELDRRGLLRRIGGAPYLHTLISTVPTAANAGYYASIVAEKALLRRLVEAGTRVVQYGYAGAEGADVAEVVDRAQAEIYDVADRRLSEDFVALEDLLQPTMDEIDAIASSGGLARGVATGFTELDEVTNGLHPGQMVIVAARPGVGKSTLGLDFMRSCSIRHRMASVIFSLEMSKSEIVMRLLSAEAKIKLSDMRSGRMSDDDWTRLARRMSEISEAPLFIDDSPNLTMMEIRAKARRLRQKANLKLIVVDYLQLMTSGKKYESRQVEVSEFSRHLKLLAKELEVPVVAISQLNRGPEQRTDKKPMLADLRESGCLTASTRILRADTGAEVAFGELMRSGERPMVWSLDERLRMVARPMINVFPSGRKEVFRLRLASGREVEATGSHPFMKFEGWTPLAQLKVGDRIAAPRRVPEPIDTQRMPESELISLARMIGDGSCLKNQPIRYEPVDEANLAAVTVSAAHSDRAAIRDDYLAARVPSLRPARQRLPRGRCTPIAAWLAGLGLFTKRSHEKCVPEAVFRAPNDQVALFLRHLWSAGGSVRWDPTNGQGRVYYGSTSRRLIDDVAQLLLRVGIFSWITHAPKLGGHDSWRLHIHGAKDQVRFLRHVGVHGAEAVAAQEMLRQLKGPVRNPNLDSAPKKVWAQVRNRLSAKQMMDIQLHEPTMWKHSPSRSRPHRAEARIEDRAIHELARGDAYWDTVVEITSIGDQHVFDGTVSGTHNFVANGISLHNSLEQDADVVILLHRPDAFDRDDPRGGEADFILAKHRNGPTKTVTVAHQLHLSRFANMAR

cells = type: functional
Protein RecA = target: T5, Protein RecA (Mycobacterium tuberculosis, UniProt P9WHJ3); assay: Fluorescence Cell-Free Homogeneous Dose Retest to Identify Inhibitors of RecA-Intein Splicing Activity. [Related pubchem assays (depositor defined):AID2097, AID2223, AID489010, AID492950]; type: functional
T5 sequence (P9WHJ3 whole entry): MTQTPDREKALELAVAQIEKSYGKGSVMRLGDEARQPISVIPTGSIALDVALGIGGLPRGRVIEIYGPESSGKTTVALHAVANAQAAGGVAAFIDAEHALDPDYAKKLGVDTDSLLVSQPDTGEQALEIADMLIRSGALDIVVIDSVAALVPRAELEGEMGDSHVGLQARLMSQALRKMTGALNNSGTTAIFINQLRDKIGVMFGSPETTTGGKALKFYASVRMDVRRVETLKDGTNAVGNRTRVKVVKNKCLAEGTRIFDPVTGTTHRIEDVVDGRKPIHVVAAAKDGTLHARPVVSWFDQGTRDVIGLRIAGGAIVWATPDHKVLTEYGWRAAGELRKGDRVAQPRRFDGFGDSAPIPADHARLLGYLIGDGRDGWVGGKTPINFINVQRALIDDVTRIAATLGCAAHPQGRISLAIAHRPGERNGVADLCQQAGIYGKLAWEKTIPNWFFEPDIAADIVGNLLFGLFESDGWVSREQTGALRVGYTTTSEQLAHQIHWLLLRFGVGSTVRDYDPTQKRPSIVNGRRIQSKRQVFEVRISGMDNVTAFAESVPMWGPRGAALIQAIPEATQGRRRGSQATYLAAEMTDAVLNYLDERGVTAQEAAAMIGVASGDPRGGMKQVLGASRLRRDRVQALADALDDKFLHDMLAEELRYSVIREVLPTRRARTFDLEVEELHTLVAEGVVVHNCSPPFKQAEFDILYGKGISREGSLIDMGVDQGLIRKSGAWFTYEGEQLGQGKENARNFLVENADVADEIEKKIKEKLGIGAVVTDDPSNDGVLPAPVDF

Large T antigen, sequence (P03070 whole entry): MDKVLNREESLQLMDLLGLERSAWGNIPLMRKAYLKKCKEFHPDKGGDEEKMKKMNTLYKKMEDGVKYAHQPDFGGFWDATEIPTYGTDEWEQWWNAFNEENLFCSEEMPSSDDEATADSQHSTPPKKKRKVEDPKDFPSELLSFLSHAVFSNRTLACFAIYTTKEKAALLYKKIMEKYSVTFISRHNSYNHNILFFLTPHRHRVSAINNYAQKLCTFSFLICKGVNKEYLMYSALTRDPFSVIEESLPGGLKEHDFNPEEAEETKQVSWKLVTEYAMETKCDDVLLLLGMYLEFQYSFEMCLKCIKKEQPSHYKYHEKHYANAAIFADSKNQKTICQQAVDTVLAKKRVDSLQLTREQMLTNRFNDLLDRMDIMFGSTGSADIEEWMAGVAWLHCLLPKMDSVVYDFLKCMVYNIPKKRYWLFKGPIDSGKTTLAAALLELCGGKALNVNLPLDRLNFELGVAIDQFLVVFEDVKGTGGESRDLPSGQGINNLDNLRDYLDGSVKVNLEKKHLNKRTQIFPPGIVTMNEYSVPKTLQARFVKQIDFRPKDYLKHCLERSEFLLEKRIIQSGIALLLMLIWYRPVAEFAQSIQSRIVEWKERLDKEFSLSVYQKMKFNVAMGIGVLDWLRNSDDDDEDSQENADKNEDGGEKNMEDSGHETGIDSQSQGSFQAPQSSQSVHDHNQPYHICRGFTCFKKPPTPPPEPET
Genome polyprotein, sequence (P29990 2492-3391 limits assumed): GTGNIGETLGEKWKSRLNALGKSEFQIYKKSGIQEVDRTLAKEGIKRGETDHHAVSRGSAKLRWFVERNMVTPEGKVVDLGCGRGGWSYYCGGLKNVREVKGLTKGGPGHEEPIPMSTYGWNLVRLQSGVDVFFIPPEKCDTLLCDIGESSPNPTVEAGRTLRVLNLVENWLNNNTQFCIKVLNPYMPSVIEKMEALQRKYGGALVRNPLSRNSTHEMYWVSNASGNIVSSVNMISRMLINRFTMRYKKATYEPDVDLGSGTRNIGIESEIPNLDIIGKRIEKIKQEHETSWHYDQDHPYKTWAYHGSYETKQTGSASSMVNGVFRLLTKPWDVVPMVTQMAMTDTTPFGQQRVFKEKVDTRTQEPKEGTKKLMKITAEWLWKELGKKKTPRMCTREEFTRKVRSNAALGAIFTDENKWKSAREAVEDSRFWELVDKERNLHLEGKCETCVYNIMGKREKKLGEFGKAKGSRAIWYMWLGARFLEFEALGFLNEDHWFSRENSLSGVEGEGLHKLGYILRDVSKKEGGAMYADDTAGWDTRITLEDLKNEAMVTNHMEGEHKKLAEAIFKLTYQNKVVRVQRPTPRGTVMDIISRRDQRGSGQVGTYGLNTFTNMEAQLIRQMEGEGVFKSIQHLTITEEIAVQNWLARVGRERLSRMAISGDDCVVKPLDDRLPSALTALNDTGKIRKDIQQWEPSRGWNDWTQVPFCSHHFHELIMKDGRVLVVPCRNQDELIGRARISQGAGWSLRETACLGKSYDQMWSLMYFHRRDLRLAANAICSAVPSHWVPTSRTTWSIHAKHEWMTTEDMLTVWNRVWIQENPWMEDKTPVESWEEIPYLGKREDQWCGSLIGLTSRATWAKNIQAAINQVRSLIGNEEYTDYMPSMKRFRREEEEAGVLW
Cytochrome P450 2D6, sequence (P10635 whole entry): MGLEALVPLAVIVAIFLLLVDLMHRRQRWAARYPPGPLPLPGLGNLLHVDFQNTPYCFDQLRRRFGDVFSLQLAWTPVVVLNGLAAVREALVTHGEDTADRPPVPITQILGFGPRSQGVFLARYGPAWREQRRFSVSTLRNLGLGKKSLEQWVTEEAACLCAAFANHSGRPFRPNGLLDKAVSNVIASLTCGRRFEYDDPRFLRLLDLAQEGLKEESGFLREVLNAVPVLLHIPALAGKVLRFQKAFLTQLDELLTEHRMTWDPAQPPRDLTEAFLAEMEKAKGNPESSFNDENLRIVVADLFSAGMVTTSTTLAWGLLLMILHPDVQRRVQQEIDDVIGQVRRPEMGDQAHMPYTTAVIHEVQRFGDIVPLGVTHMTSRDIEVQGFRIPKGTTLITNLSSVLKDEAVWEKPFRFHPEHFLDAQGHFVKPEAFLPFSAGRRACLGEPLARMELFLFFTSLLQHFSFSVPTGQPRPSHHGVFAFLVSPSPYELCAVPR
DNA dC->dU-editing enzyme APOBEC-3A, sequence (P31941 whole entry): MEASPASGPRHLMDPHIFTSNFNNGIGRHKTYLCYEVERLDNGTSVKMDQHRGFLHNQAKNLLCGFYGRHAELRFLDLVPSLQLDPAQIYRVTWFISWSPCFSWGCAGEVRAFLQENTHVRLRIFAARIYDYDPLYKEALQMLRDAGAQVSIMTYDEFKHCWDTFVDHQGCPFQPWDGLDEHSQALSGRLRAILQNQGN

Structure (SMILES): C[C@@H]1CN([C@H](C)CO)C(=O)c2cccc(NC(=O)c3ccc(-c4nccs4)cc3)c2O[C@H]1CN(C)Cc1ccc2c(c1)OCO2
- AC50 [1]: 1.19 µM (active)
- AC50 [2]: 3.44 µM (active)
- AC50 [3]: > 100 µM (inactive)
- AC50 [4]: 3.63 µM (active)
- AC50 [5]: 3.02 µM (active)

Structure (SMILES): Cc1nc(N)sc1N=Nc1c(C)n(C)n(-c2ccccc2)c1=O
- IC50 (Large T antigen): 17.3 µM (active)

Structure (SMILES): O=C1NC2(CCC3(CC2)OCCO3)NN1c1ccc(Cl)cc1
- CC50 [6]: > 40 µM (active)
- EC50 [7]: > 150 µM (inactive)
- EC50 [8]: 1.64 µM (active)

Structure (SMILES): O=C1NC(=O)N(Cc2ccccc2)C(=O)/C1=C/NNC(=O)c1ccccc1O
- IC50 (Leucine aminopeptidase): 62.3 µM (active)
- IC50 (Aminopeptidase N): 17.3 µM (active)
- IC50 [9]: 97.4 µM (active)

Structure (SMILES): O=C1Nc2ccc(F)cc2C12Nc1ccccc1-c1nnc(SCc3ccccc3F)nc1O2 (configuration not stated)
- AC50 (Cytochrome P450 1A2): 10 µM (inconclusive)
- AC50 (Cytochrome P450 2D6): 14.1 µM (inconclusive)
- IC50 (Genome polyprotein): 30.8 µM (active)
- IC50 (Aminopeptidase N): 68.4 µM (active)

Structure (SMILES): CCOC(=O)c1nn(-c2cccc(Cl)c2)c2nc(Nc3ccccc3)cc(=O)n12
- IC50 [9]: 33 µM (active)

Structure (SMILES): CCC(Oc1ccccc1OC)C(=O)Nc1ccc2c(c1)OCCO2 (configuration not stated)
- IC50 [10]: 6.09 µM (active)

Structure (SMILES): CO[C@H]1CN(C)C(=O)c2cc(NC(=O)Nc3cccc(Cl)c3)ccc2OC[C@H](C)NC[C@H]1C
- AC50 [1]: 4.56 µM (active)
- AC50 [2]: 5.09 µM (active)
- AC50 [3]: 25 µM (active)
- AC50 [4]: 3.37 µM (active)
- AC50 [5]: 3.03 µM (active)

Structure (SMILES): COc1cccc(OC)c1C(=O)NC(C)C12CC3CC(CC(C3)C1)C2 (configuration not stated)
- IC50 [9]: 22.7 µM (active)

Structure (SMILES): CCOC(=O)CC(=O)CSc1nc(O)c2sc(=S)n(-c3ccc(OCC)cc3)c2n1
- IC50 (Leucine aminopeptidase): 26.4 µM (active)
- IC50 [9]: 21.6 µM (active)

Structure (SMILES): COC(=O)c1ccccc1Sc1ncnc2onc(C)c12
- CC50 [6]: > 40 µM (active)
- AC50 [11]: 12.4 µM (active)
- IC50 (cells): 10.9 µM (active)
- EC50 (Protein RecA): 9.04 µM (active)

Structure (SMILES): COc1cc(/C=N/Nc2ccnc(O)n2)ccc1O
- IC50 (Large T antigen): 6.16 µM (active)

Structure (SMILES): Cc1ccc(C(=O)Nc2sc3c(c2C(=O)O)CCCCC3)o1
- IC50 [9]: 28.4 µM (active)
